Counter-ions that a name gives are not always drawn.
How the values were obtained:
[1] = test system: HeLa cells; assay: Protein expression assay in HeLa cells (One-Glo luciferase, NPI-Luc mRNA); format: cell-based, human; settings: 5 h, no serum, 4 wells, sterol amine post-added to LNP core Compound 18, DSPC, Cholesterol plus DMG-PEG 2K (SA3, SA11, SA24, SA26, SA39, SA32), plus Compound 428 (SA4, SA6, SA10, SA16), or plus β-sitosterol and DMG-PEG 2K (SA23, SA29, SA30, SA31)
Procedure: To evaluate protein expression In Vitro, HeLa cells from ATCC.org (ATCC CCL-2) are used. The cells are cultured in complete Minimum Essential Medium (MEM) and are plated in 96 well Cell Carrier Ultra plate with PDL coated surface (PerkinElmer) prior to running an experiment.
LNPs encapsulating NPI-Luc mRNA were dosed with MEM media in the absence of serum. LNP transfected cell were incubated for 5 h post LNP transfection, the cells were imaged live using Opera Phoenix spinning disk confocal microscope (PerkinElmer). Cells were detected using DAPI (405 nm channel), and image analysis was performed in Harmony 4.9, to quantify the number of cells. After imaging the cells were processed with One-Glo Luciferase assay (Promega) to quantify protein expression. Results were reported in relative luminescence units (RLU) normalized to cells counts.
LNPs were prepared according to Example 2 using NPI-Luc as the mRNA construct. NPI-Luc is a dual read reporter made by adding a 5xV5 tag and a C-myc nuclear localization sequence at the N-terminus of Firefly Luciferase to enhance the signal to noise ratio. Protein expression can be detected using OneGLo assays with luminescence readout or by immunofluorescence with anti-V5 antibodies. Protein expression was evaluated according to the procedure outlined in Example 7. The LNPs are dosed in 4 wells and the average response was reported. For the HeLa assay the luminescence read (RLU) were normalized to cell counts.

[2] = test system: respiratory epithelium; assay: LNP protein expression in mouse after single dose of mRNA-LNP by intratracheal delivery (anti-V5 IHC); format: in vivo; settings: intratracheal instillation, ~0.7 mpk, NPI-Luc mRNA, core with β-sitosterol for SA23, SA31
Procedure: Animals are anesthetized under isoflurane. The tongue is displaced and a small diameter cannula is inserted into the trachea (oropharyngeal route). The cannula tip is passed through the vocal chords, down the trachea so that the tip is very near, but not touching, the carina. Upon placement, 50 μL (mouse) or 200 μL (rat) of formulation is infused into the lungs. After 30 seconds upright, animals are released into a recovery cage and returned to their respective cages once recovered. Trachea, lungs and for the aerosol study nasal cavities, nasopharynx and larynx are collected for analysis. Lungs are inflated with 10% NBF fixative and trachea tied off to maintain inflation. Lungs are removed en bloc with attached trachea, bronchi and lobes. Whole lungs en bloc are fixed in 10% NBF at room temperature for at least 24 hours with a maximum of 48 hours and then removed from fixative and placed in PBS. Samples are immediately sent to be processed for paraffin 5-micron sections and H&E staining. IHC was performed on FFPE sections using the Leica Bond RX autostainer. […] Images were imaged at 20× magnification with the Panoramic 250 Flash III whole slide scanner. Image analysis was completed with Indica Labs HALO image analysis software. […] LNPs were prepared according to Example 2 using NPI-Luc as the mRNA construct. LNPs were delivered to mice by intratracheal instillation for a dose of ˜0.7 mpk. LNP protein expression in respiratory epithelium was evaluated according to sample collection and assay procedures A and B. The results are shown in Table 13a.

Row | Structure (SMILES) | Average protein expression per cell (RLU per cell) [1] [RLU per cell] | Average % V5 positive cells/total cells ([2]; Mouse Bronchi (left lung)) [%] | Average % V5 positive cells/total cells ([2]; Mouse Trachea) [%]
1 | CC(C)CCC[C@@H](C)[C@H]1CC[C@H]2[C@@H]3CC=C4C[C@@H](OC(=O)NCCN(C)CCO)CC[C@]4(C)[C@H]3CC[C@]12C [SA6, (3S,8S,9S,10R,13R,14S,17R)-10,13-dimethyl-17-((R)-6-methylheptan-2-yl)-2,3,4,7,8,9,10,11,12,13,14,15,16,17-tetradecahydro-1H-cyclopenta[a]phenanthren-3-yl (2-((2-hydroxyethyl)(methyl)amino)ethyl)carbamate] | 196.2 |  | 
2 | CC(C)CCC[C@@H](C)[C@H]1CC[C@H]2[C@@H]3CC=C4C[C@@H](SSCCC(=O)N(CCCN)CCCCNCCCN)CC[C@]4(C)[C@H]3CC[C@]12C [SA39, N-(3-Aminopropyl)-N-(4-((3-aminopropyl)amino)butyl)-3-(((3S,8S,9S,10R,13R,14S,17R)-10,13-dimethyl-17-((R)-6-methylheptan-2-yl)-2,3,4,7,8,9,10,11,12,13,14,15,16,17-tetradecahydro-1H-cyclopenta[a]phenanthren-3-yl)disulfaneyl)propanamide trihydrochloride] | 201.9 |  | 
3 | CC(C)CCC[C@@H](C)[C@H]1CC[C@H]2[C@@H]3CC=C4C[C@@H](OC(=O)CC5CN6CCC5CC6)CC[C@]4(C)[C@H]3CC[C@]12C (stereo partly drawn) [SA32, (3S,8S,9S,10R,13R,14S,17R)-10,13-Dimethyl-17-((R)-6-methylheptan-2-yl)-2,3,4,7,8,9,10,11,12,13,14,15,16,17-tetradecahydro-1H-cyclopenta[a]phenanthren-3-yl 2-(quinuclidin-3-yl)acetate] | 301.8 |  | 
4 | CC(C)CCC[C@@H](C)[C@H]1CC[C@H]2[C@@H]3CC=C4C[C@@H](OC(=O)N(CCCN)CCCCN)CC[C@]4(C)[C@H]3CC[C@]12C [SA29, (3S,8S,9S,10R,13R,14S,17R)-10,13-Dimethyl-17-((R)-6-methylheptan-2-yl)-2,3,4,7,8,9,10,11,12,13,14,15,16,17-tetradecahydro-1H-cyclopenta[a]phenanthren-3-yl (4-aminobutyl)(3-aminopropyl)carbamate dihydrochloride] | 550.3 |  | 
5 | CC[C@H](CC[C@@H](C)[C@H]1CC[C@H]2[C@@H]3CC=C4C[C@@H](OC(=O)NCCN(C)C)CC[C@]4(C)[C@H]3CC[C@]12C)C(C)C [SA10, (3S,8S,9S,10R,13R,14S,17R)-17-((2R,5R)-5-Ethyl-6-methylheptan-2-yl)-10,13-dimethyl-2,3,4,7,8,9,10,11,12,13,14,15,16,17-tetradecahydro-1H-cyclopenta[a]phenanthren-3-yl (2-(dimethylamino)ethyl)carbamate] | 236.6 |  | 
6 | CC(C)CCC[C@@H](C)[C@H]1CC[C@H]2[C@@H]3CC=C4C[C@@H](OC(=O)NCCNc5c(NCCCN(C)C)c(=O)c5=O)CC[C@]4(C)[C@H]3CC[C@]12C [SA26, (3S,8S,9S,10R,13R,14S,17R)-10,13-dimethyl-17-((R)-6-methylheptan-2-yl)-2,3,4,7,8,9,10,11,12,13,14,15,16,17-tetradecahydro-1H-cyclopenta[a]phenanthren-3-yl (2-((2-((3-(dimethylamino)propyl)amino)-3,4-dioxocyclobut-1-en-1-yl)amino)ethyl)carbamate, hydrochloride salt] | 84.3 |  | 
7 | CC(C)CCC[C@@H](C)[C@H]1CC[C@H]2[C@@H]3CC=C4C[C@@H](OC(=O)CCC(=O)N(CCCN)CCCCN)CC[C@]4(C)[C@H]3CC[C@]12C [SA31, (3S,8S,9S,10R,13R,14S,17R)-10,13-Dimethyl-17-((R)-6-methylheptan-2-yl)-2,3,4,7,8,9,10,11,12,13,14,15,16,17-tetradecahydro-1H-cyclopenta[a]phenanthren-3-yl 4-((4-aminobutyl)(3-aminopropyl)amino)-4-oxobutanoate dihydrochloride] | 643.6 | 10.52 | 27.07
8 | CC(C)CCC[C@@H](C)[C@H]1CC[C@H]2[C@@H]3CC=C4C[C@@H](OC(=O)CCc5cnc[nH]5)CC[C@]4(C)[C@H]3CC[C@]12C [SA11, (3S,8S,9S,10R,13R,14S,17R)-10,13-dimethyl-17-((R)-6-methylheptan-2-yl)-2,3,4,7,8,9,10,11,12,13,14,15,16,17-tetradecahydro-1H-cyclopenta[a]phenanthren-3-yl 3-(1H-imidazol-5-yl)propanoate, hydrochloride salt] | 5.3 |  | 
9 | CC(C)CCC[C@@H](C)[C@H]1CC[C@H]2[C@@H]3CC=C4C[C@@H](OC(=O)NCCCNCCCCN)CC[C@]4(C)[C@H]3CC[C@]12C [SA30, (3S,8S,9S,10R,13R,14S,17R)-10,13-Dimethyl-17-((R)-6-methylheptan-2-yl)-2,3,4,7,8,9,10,11,12,13,14,15,16,17-tetradecahydro-1H-cyclopenta[a]phenanthren-3-yl (3-((4-aminobutyl)amino)propyl)carbamate dihydrochloride] | 648.3 |  | 
10 | CC(C)CCC[C@@H](C)[C@H]1CC[C@H]2[C@@H]3CC=C4C[C@@H](OC(=O)CCC(=O)N(CCCN(C)C)CCCN(C)C)CC[C@]4(C)[C@H]3CC[C@]12C [SA24, (3S,8S,9S,10R,13R,14S,17R)-10,13-Dimethyl-17-((R)-6-methylheptan-2-yl)-2,3,4,7,8,9,10,11,12,13,14,15,16,17-tetradecahydro-1H-cyclopenta[a]phenanthren-3-yl 4-(bis(3-(dimethylamino)propyl)amino)-4-oxobutanoate dihydrochloride] | 457.2 |  | 
